Legend:
[1] = biological target: T1, hFPR1 (Homo sapiens, UniProt P21462); experiment: Akt (Thr308) phosphorylation in hFPR1-FlpIn-CHO cells; format: cell-based
T1 construct: expressed in transfected cells
T1 sequence (P21462 1-350): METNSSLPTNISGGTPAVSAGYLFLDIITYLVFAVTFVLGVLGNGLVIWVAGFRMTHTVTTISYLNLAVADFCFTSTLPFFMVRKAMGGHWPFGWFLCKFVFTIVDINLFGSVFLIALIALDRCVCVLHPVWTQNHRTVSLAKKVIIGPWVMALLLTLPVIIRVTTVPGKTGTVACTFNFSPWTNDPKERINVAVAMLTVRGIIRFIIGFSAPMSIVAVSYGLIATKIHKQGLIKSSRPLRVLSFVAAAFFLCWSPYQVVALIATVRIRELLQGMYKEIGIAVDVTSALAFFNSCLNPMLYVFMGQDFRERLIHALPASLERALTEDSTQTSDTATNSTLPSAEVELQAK
Excerpt: (§1) cDNDA construct and generation of stable cell lines: cDNA in pcDNA3.1^+ encoding the human formyl peptide receptors (FPR) subtypes, hFPR1, hFPR2 and hFPR3 was obtained from Invitrogen. The sequences for 3 hFPR receptors were amplified by PCR and cloned into the Gateway entry vector, pDONR202™, using the BP clonase enzyme mix, according to the manufactures' instructions (Invitrogen Inc, Carlsbad, Calif., USA). All hFPR receptors constructs in pDONR201™ were subsequently transfected into the pEF5/FRT/V5/dest vector using the LR clonase enzyme mix (Invitrogen). Receptor constructs (pEF5/FRT/V5/dest) were used to transfect FIp-In CHO cells as described previously (Valant C et al., PNAS, 2014). Cells were selected using 500 μg/mL hydromycin to generate cell lines stably expressing each receptor construct. Cells were maintained and cultured in high glucose DMEM supplemented with 10% FBS, 16 mM HEPES and 500 μg/mL hydromycin at 37° C. under a humidified atmosphere containing 5% CO2.
(§2) In the various assays described below, cells were plated into 96-well transparent cell culture plates at 4×10^4 cells per well, cultured overnight in serum-free media at 37° C. in 5% CO2.
Measurement of Akt1/2/3 phosphorylation and Akt 1: The same lysate was used for measurement of Akt1/2/3 phosphorylation (Ser473) and Akt1 (Thr308). Cells were lysed in SureFire lysis buffer and transferred to 384-well opaque proxiplates. Under low-light conditions, a 1:10:40 (v:v:v) dilution of AlphaScreen acceptor beads:Surefire activation buffer:Surefire reaction buffer was prepared and the plate was incubated in the dark at RT for 2 h. Then, a 1:20 (v:v) dilution of AlphaScreen donor beads/dilution was prepared and incubated in the dark at RT for another 2 h, before the fluorescence signal was measured by used of a Fusion-α plate reader (PerkinElmer Life and Analytical Sciences) with standard AlphaScreen settings. Receptor mediated phosphorylation of Akt1/2/3 (Ser473) and Akt1 (Thr308) were determined using the AlphaScreen™ […] SureFire™ kit, as per as per manufacturer's instructions. Data were normalized to the maximal response elicited by 10% (v:v) FBS at the same time point.
(§3) Data analysis: All data were analysed using GraphPad Prism 6.0 (GraphPad Software, San Deigo, Calif., USA). Where appropriate, concentration-response curves were fitted to derive the maximal agonist effect (Emax), and the ligand potency estimate (pEC50), where Emax is the maximal possible response of the system (not the agonist), basal is the basal level of response in the absence of agonist, and pEC50 is the negative logarithm of the agonist concentration that gives a response halfway between Emax and basal.
(§4) In the present study, FIp-IN CHO cells and Gateway plasmid were obtained from Invitrogen Inc (Carlsbad, Calif., USA). The sequences for all 3 known human FPRs (hFPR1, hFPR2 and hFPR3) were amplified by PCR and cloned into the Gateway entry vector, pDONR202TM, using the BP clonase enzyme mix, according to the manufacturers' instructions. The hFPR pDONR201TM constructs were subsequently transfected into the pEF5/FRT/V5/dest vector using the LR clonase enzyme mix (Invitrogen). Receptor constructs (pEF5/FRT/V5/dest) were used to transfect FIp-IN CHO cells, as described previously (Valant et al. 2014). Cells were selected using 500 μg/mL hydromycin to generate cell lines stably expressing each human receptor construct. Cells were maintained and cultured in high glucose Dulbecco's modified eagle medium (DMEM) supplemented with 10% fetal bovine serum (FBS, from JRH Biosciences, Lenexa, Kans., USA) and 500 μg/mL hydromycin B (Invitrogen Inc) at 37° C. under a humidified atmosphere containing 5% CO2. Cell were plated into 96-well transparent cell culture plates at 4×10^4 cells per well, cultured overnight in serum-free media at 37° C. in 5% CO2.

[2] = biological target: T1, hFPR1; experiment: Inhibition of forskolin-stimulated cAMP accumulation in hFPR1-FlpIn-CHO cells; format: cell-based; conditions: for Concentration-response profile on forskolin-stimulated cAMP accumulation at hFPR1: in words
Excerpt: as §1, §2
cAMP Accumulation: CHO-hFPR1, -hFPR2 and -hFPR3 stable transfected cells were plated into 96-well plates and cultured overnight at 37° C. in 5% CO2. Cells were washed with PBS, and cultured overnight. […] Cells were lysed in detection buffer (dH2O, 0.3% Tween 20, 5 mM HEPES, 0.1% BSA). Lysates were transferred to a 384-well plate and mixtures of detection buffer/donor bead-conjugated anti-cAMP antibody and detection buffer: biotinylated cAMP: acceptor bead-conjugated streptavidin were added to the lysates according to the PerkinElmer cAMP Alphascreen protocol. Under low-light conditions, a 1:50 (v:v) dilution of AlphaScreen acceptor beads: stimulation buffer was prepared, 1:150 (v:v) dilution of donor beads and 50 nM biotinylated cAMP in detection buffer was prepared in a 384-well opaque optiplates. Plates were incubated in the dark at room temperature overnight before the fluorescence signal was measured by use of a Fusion-α plate reader (PerkinElmer Life and Analytical Sciences). Data were normalized to the response elicited by 10 μM forskolin at the same time point.
as §3, §4

[3] = Table 8, normalized transduction coefficient, reference agonist Cmpd43
[4] = Table 8, transduction coefficient

For CC(C)C1C(NC(=O)Nc2ccc(Cl)cc2)C(=O)N(c2ccccc2)N1C (centres unmarked) [BIDI-002], the Emax ([1]; Table 3, percentage of Akt1/2/3 phosphorylation elicited by 10% FBS, read-out: Emax (%), Akt 1 (Thr308) phosphorylation, hFPR1-Flpln-CHO) was 15 ± 4%, the EC50 ([1]; Table 3, read-out: pEC50, Akt 1 (Thr308) phosphorylation, hFPR1-Flpln-CHO (converted)) was 129 nM and the “ΔLog(τ/KA), Akt 1/2/3 (Thr308) phosphorylation, hFPR1-Flpln-CHO” value [1, 3] was 0.0. The Emax ([1]; Table 8, percent of response elicited by 10% FBS, read-out: Emax, Akt 1/2/3 (Thr308) phosphorylation, hFPR1-Flpln-CHO) was 15 ± 4%, the EC50 ([1]; Table 8, read-out: pEC50, Akt 1/2/3 (Thr308) phosphorylation, hFPR1-Flpln-CHO (converted)) was 126 nM and the “Log(τ/KA), Akt 1/2/3 (Thr308) phosphorylation, hFPR1-Flpln-CHO” value [1, 4] was 6.9 ± 0.3. The Emax ([2]; Table 4, percentage inhibition of forskolin-stimulated cAMP accumulation, read-out: Emax (%), inhibition to cAMP accumulation, hFPR1-Flpln-CHO) was 27 ± 20%, the EC50 ([2]; Table 4, read-out: pEC50, inhibition to cAMP accumulation, hFPR1-Flpln-CHO (converted)) was 74.1 nM and the “ΔLog(τ/KA), inhibition of cAMP accumulation, hFPR1-Flpln-CHO” value [2, 3] was 0.0. For the same compound, the Emax ([2]; Table 8, percent inhibition of forskolin-induced cAMP accumulation, read-out: Emax, inhibition of cAMP accumulation, hFPR1-Flpln-CHO) was 27 ± 20%, the EC50 ([2]; Table 8, read-out: pEC50, inhibition of cAMP accumulation, hFPR1-Flpln-CHO (converted)) was 79.4 nM and the “Log(τ/KA), inhibition of cAMP accumulation, hFPR1-Flpln-CHO” value [2, 4] was 7.1 ± 0.3. The “Concentration-response profile on forskolin-stimulated cAMP accumulation at hFPR1” value [2] was “bell-shaped curves” and the “Concentration-response profile on forskolin-stimulated cAMP accumulation at hFPR1” value ([2]; listed as Cmpd43) was “bi-phasic curve”.

From patent US10328075B2, “Method of treatment and compounds for use therein” (Baker Heart and Diabetes Institute, priority 2015, dated 2019)
